Data: patent publication US11547681B2, “N-acylethanolamide derivatives and uses thereof” (ELIEM THERAPEUTICS, INC., priority 2016, dated 2023)

Key:
in vitro = details: for Concentration (μM) of analyte PEA, 0 min / Concentration (μM) of analyte PEA, 10 min / Concentration (μM) of analyte PEA, 20 min / Concentration (μM) of analyte PEA, 30 min / Concentration (μM) of analyte PEA, 60 min / % Remaining of Initial (n = 1), 0 min / % Remaining of Initial (n = 1), 10 min / % Remaining of Initial (n = 1), 20 min / % Remaining of Initial (n = 1), 30 min / % Remaining of Initial (n = 1), 60 min / microsomal CLint at 1 μM / half-life at 1 μM / microsomal CLint / half-life: male, CD-1, mouse; for Concentration (μM) of analyte PEA, 0 min / Concentration (μM) of analyte PEA, 10 min / Concentration (μM) of analyte PEA, 20 min / Concentration (μM) of analyte PEA, 30 min / Concentration (μM) of analyte PEA, 60 min / % Remaining of Initial (n = 1), 0 min / % Remaining of Initial (n = 1), 10 min / % Remaining of Initial (n = 1), 20 min / % Remaining of Initial (n = 1), 30 min / % Remaining of Initial (n = 1), 60 min: 1 μM; for % Remaining of Initial (n = 1), 0 min: s9, 0 h; for % Remaining of Initial (n = 1), 10 min: s9, 10 min; for % Remaining of Initial (n = 1), 20 min: s9, 20 min; for % Remaining of Initial (n = 1), 30 min: s9, 0.5 h; for % Remaining of Initial (n = 1), 60 min: s9, 1 h; for microsomal CLint at 1 μM: s9, CLint (mL/min/mg protein)
Protocol: (§1) Reaction mixture, minus cofactors, was prepared as described below. Test article was added into the reaction mixture at a final concentration of 1 μM. […] An aliquot of the reaction mixture (without cofactor cocktail) was equilibrated in a shaking water bath at 37° C. for 3 minutes. The reaction was initiated by the addition of cofactor cocktail, and the mixture was incubated in a shaking water bath at 37° C. Aliquots (100 μL) were withdrawn at 0, 10, 20, 30, and 60 minutes. Test article samples were immediately combined with 300 μL of ice-cold acetonitrile containing 1% formic acid. Control samples were immediately combined with 400 μL of ice-cold 50/50 acetonitrile (ACN)/dH2O containing 0.1% formic acid and internal standard to terminate the reaction. Samples were then mixed and centrifuged to precipitate proteins. Calibration standards were prepared in matched matrix. Samples and standards were assayed by LC-MS/MS using electrospray ionization for both the dosed prodrug and the expected drug (PEA). Analytical conditions are outlined in Appendix 8-1. Test article concentration at each time point was compared to test article concentration at time 0 to determine the percent remaining at each time point. Halflives were calculated using GraphPad software, fitting to a single-phase exponential decay equation.
as §1, with “for 5” for “for 3”, “minutes. Reaction” for “minutes. The reaction”, “and” for “and the”, “both” for “both the”, “Appendix 10-1.” for “Appendix 8-1.”
Reaction mixture, minus cofactors, was prepared as described below. Test article was added into the reaction mixture at a final concentration of 1 μM. […] An aliquot of the reaction mixture (without cofactor cocktail) was equilibrated in a shaking water bath at 37° C. for 3 minutes. Reaction was initiated by the addition of cofactor cocktail, and the mixture was incubated in a shaking water bath at 37° C. Aliquots (100 μL) were withdrawn at 0, 10, 20, 30, and 60 minutes. Test article samples were immediately combined with 300 μL of ice-cold acetonitrile containing 1% formic acid. Control samples were immediately combined with 400 μL of ice-cold 50/50 acetonitrile (ACN)/dH2O containing 0.1% formic acid and internal standard to terminate the reaction. Samples were then mixed and centrifuged to precipitate proteins. Calibration standards were prepared in matched matrix. Samples and standards were assayed by LC-MS/MS using electrospray ionization for both dosed prodrug and expected drug (PEA). Analytical conditions are outlined in Appendix 13-1. Test article concentration at each time point was compared to test article concentration at time 0 to determine the percent remaining at each time point. Halflives were calculated using GraphPad software, fitting to a single-phase exponential decay equation.

[1] = Plasma stability (37° C., pH 7.4), human; format: in vitro ADME; details: for half-life at 1 μM: both sexes, human, plasma, pH 7.4, human plasma; for % Remaining of Initial (n = 1), 0 min / % Remaining of Initial (n = 1), 15 min / % Remaining of Initial (n = 1), 30 min / % Remaining of Initial (n = 1), 60 min / % Remaining of Initial (n = 1), 120 min: human plasma; for % Remaining of Initial (n = 1), 0 min: pH 7.4, 0 min; for % Remaining of Initial (n = 1), 15 min: pH 7.4, 15 min; for % Remaining of Initial (n = 1), 30 min: pH 7.4, 30 min; for % Remaining of Initial (n = 1), 60 min: pH 7.4, 60 min; for % Remaining of Initial (n = 1), 120 min: pH 7.4, 120 min
Protocol: (§2) Studies were carried out in mixed-gender human plasma (Lot #GLP530-5), male Sprague-Dawley rat (Lot #RAT297944, RAT313140), male CD-1 mouse (Lot #MSE237700), and male Beagle dog (Lot #BGL87670, BGL82614), collected on sodium heparin. Plasma was adjusted to pH 7.4 prior to initiating the experiments. DMSO stocks were first prepared for the test articles. Aliquots of the DMSO solutions were dosed into 700 μL of plasma, which had been pre-warmed to 37° C., at a final test article concentration of 1 μM. […] Samples were stored at 4° C. until the end of the experiment. After the final time point was sampled, the plate was mixed and then centrifuged at 3,000 rpm for 10 minutes. Calibration standards were prepared in matched matrix. […] Analytical conditions are outlined in Appendix 8-1.
as §2, with “#AS1650-2),” for “#GLP530-5),”, “#RAT297944),” for “#RAT297944, RAT313140),”, “CD-I” for “CD-1”, “#BGL91384),” for “#BGL87670, BGL82614),”, “10-1.” for “8-1.”
Studies were carried out in mixed-gender human plasma (Lot #AS1650-2), male Sprague-Dawley rat (Lot #RAT297944), male CD-1 mouse (Lot #MSE237700), and male Beagle dog (Lot #BGL91384), collected on sodium heparin. Plasma was adjusted to pH 7.4 prior to initiating the experiments. DMSO stocks were first prepared for test articles. […] Samples were stored at 4° C. until the end of experiment. After the final time point was sampled, the plate was mixed and then centrifuged at 3,000 rpm for 10 minutes. Calibration standards were prepared in matched matrix. […] Analytical conditions are outlined in Appendix 13-1.
Studies were carried out in mixed-gender human plasma (Lot #AS 1650-2), male Sprague-Dawley rat (Lot #RAT320835), male CD-1 mouse (Lot #MSE260693), and 6 male Beagle dog (Lot #BGL91384), on sodium heparin. Plasma was adjusted to pH 7.4 prior to initiating the experiments. DMSO stocks were first prepared for the test articles. Aliquots of the DMSO solutions were dosed into 700 μL of plasma, which had been pre-warmed to 37° C., at a final test article concentration of 1 μM. […] Samples were stored at 4° C. until the end of the experiment. After the final time point was sampled, the plate was mixed and then centrifuged at 3,000 rpm for 10 minutes. Calibration standards were prepared in matched matrix. […] Analytical conditions are outlined in Appendix 17-1.

[2] = test article 1 μM, 37° C., pH 7.4, read-out: Half-life
[3] = calculated value beyond duration of experiment, read-out: Half-life (min), calculated half-life in parentheses
[4] = control compound, mouse intestinal S9 fraction

Structure (SMILES)	Concentration (μM) of analyte PEA, 0 min (in vitro)	Concentration (μM) of analyte PEA, 10 min (in vitro)	Concentration (μM) of analyte PEA, 20 min (in vitro)	Concentration (μM) of analyte PEA, 30 min (in vitro)	Concentration (μM) of analyte PEA, 60 min (in vitro)	% Remaining of Initial (n = 1), 0 min (in vitro)	% Remaining of Initial (n = 1), 10 min (in vitro)	% Remaining of Initial (n = 1), 20 min (in vitro)	% Remaining of Initial (n = 1), 30 min (in vitro)	% Remaining of Initial (n = 1), 60 min (in vitro)	microsomal CLint at 1 μM (in vitro)	half-life at 1 μM (in vitro; s9, Half-life (min))	half-life at 1 μM [1, 2]	half-life at 1 μM [1, 3]	% Remaining of Initial (n = 1), 0 min ([1]; test article 1 μM, 37° C.)	% Remaining of Initial (n = 1), 15 min ([1]; test article 1 μM, 37° C.)	% Remaining of Initial (n = 1), 30 min ([1]; test article 1 μM, 37° C.)	% Remaining of Initial (n = 1), 60 min ([1]; test article 1 μM, 37° C.)	% Remaining of Initial (n = 1), 120 min ([1]; test article 1 μM, 37° C.)	further results
CCCCCCCCCCCCCCCC(=O)NCCOC(=O)CCC [Compound I-2]	0.52 µM	0.50 µM	0.52 µM	0.45 µM	0.45 µM	100%	<1.0%	<1.0%	<1.0%	<1.0%	> 691 µL/min/mg	< 0.0167 h	> 120 min	135 min	100%	96%	91%	84%	51%	–
CCCCCCCCCCCCCCCC(=O)NCCOC(=O)CCC(=O)OCC(COC(=O)CCCCCCC)OC(=O)CCCCCCC (stereo not shown) [Compound I-3, PEA-Succinate-Glycerol-Di-Caprylic]	0 µM	0.026 µM	0.024 µM	0.026 µM	0.043 µM	100%	68%	59%	49%	33%	21.1 µL/min/mg	0.55 h	> 120 min	211 min	100%	109%	84%	65%	77%	–
CC/C=C\C/C=C\C/C=C\C/C=C\C/C=C\CCCC(=O)OCCNC(=O)CCCCCCCCCCCCCCC [Compound I-5]	0.050 µM	0.11 µM	0.076 µM	0.093 µM	0.14 µM	100%	68%	67%	66%	49%	–	–	> 120 min	195 min	100%	110%	81%	82%	69%	–
CCCCC/C=C\C/C=C\CCCCCCCC(=O)OCCNC(=O)CCCCCCCCCCCCCCC [Compound I-6]	0.12 µM	0.14 µM	0.17 µM	0.15 µM	0.17 µM	100%	62%	69%	61%	53%	< 11.6 µL/min/mg	> 1 h	> 120 min	147 min	100%	79%	102%	74%	53%	microsomal CLint at 1 μM (in vitro; calculated value in parentheses): 10.5 µL/min/mg; half-life at 1 μM (in vitro; s9, Half-life (min), calculated half-life in parentheses): 1.1 h
C[C@]12CC[C@H]3[C@@H](CCC4=CC(=O)CC[C@@]43C)[C@@H]1CC[C@@H]2O [Testosterone, testosterone, reference compound]	–	–	–	–	–	–	–	–	–	–	–	–	–	–	–	–	–	–	–	CLin (in vitro; [4]): < 0.0116 ml/min/mg protein; CLin, calculated value in parentheses (in vitro; [4]): 0.00767 ml/min/mg protein; microsomal CLint (in vitro; s9, CLint (ml/min/mg protein), calculated value in parentheses, control compound, mouse intestinal S9 fraction, calculated value beyond duration of experiment): 9.19 µL/min/mg; microsomal CLint (in vitro; s9, CLint (ml/min/mg protein), control compound, mouse intestinal S9 fraction): < 11.6 µL/min/mg; microsomal CLint (in vitro; s9, CLint, Control Compound, Mouse intestinal S9 fraction): < 11.6 µL/min/mg; microsomal CLint (in vitro; s9, CLint, Mouse intestinal S9 fraction, control compound): < 11.6 µL/min/mg; half-life (in vitro; s9, Half-life (min), calculated value in parentheses, control compound, mouse intestinal S9 fraction, calculated value beyond duration of experiment): 1.25 h; half-life (in vitro; s9, Half-life (min), control compound, mouse intestinal S9 fraction): > 1 h; half-life (in vitro; s9, Half-life, Control Compound, Mouse intestinal S9 fraction): > 1 h; half-life at 1 μM (in vitro; s9, Half-life, Mouse intestinal S9 fraction): > 1 h; half-life (in vitro; s9, Half-life, calculated value in parentheses, control compound, mouse intestinal S9 fraction): 1.5 h; half-life (in vitro; s9, Half-life, control compound, mouse intestinal S9 fraction): > 1 h
